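Briefly, cells in 96-well plates were exposed to five compound concentrations for 48 h, and endpoints were estimated by linear interpolation. GI50 = concentration required for 50% inhibition of growth. Definition used: TGI = concentration required for complete inhibition of growth.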

Common to all, as to test: inhibition of tumour cell growth, NCI panel, 48 h
Assay [1] relates to K-562 leukemia.
Assay [2] relates to UACC-257 melanoma.
The test system of assay [3] is ACHN renal.
The subject of assay [4] is MOLT-4 leukemia.
In assay [5] the test system is UACC-62 melanoma.
Assay [6] deals with MDA-MB-435.
Assay [7] deals with NCI/ADR-RES ovarian.
The test system of assay [8] is PC-3 prostate.
Assay [9] has as its system MCF7 breast.
In assay [10] the test system is HS 578T breast.

In the case of `CCCCC[C@@H]1CCCC2NC(CCCCCO[Si](c3ccccc3)(c3ccccc3)C(C)(C)C)CCC21` (stereo partly drawn), the TGI in assay [1] worked out at 20.9 µM; in [2] it was 29 µM; in [3], 26.5 µM; in assay [4], 29.4 µM; in assay [5] it was 34.9 µM.
As for `COc1ccc2c(c1OC)C(=O)C2`, the TGI in [2], in assay [3], in assay [4] and in [5] was more than 100 µM throughout.
Regarding `CN(C)CCNC(=O)c1ccc2c(c1)oc1cc3ccccc3c(=O)n12`, the GI50 in assay [1] is 35.4 µM; in assay [2] it was 21.7 µM; in assay [3] it was 12.5 µM; in assay [6], 15.1 µM; in [4], 97.7 µM; in assay [7], 18.6 µM. The GI50 in [5] is 17.4 µM; in [8], 28.7 µM. The TGI in assay [1] was more than 100 µM; in assay [2], 37.5 µM; in assay [3] it was 26 µM; in [6] it was 32.7 µM; in assay [4], more than 100 µM; in assay [7], 34.5 µM. Further, the TGI in [5] was 33.8 µM; in assay [8] it was more than 100 µM.
In the case of `O=C(c1ccccc1)c1nc2c(Cl)ccc(Cl)c2cc1C(Br)Br`, the TGI came out at 1.77 µM in [1]; 1.54 µM in [2]; 1.52 µM in [3]; 7.13 µM in assay [4]; 3.01 µM in assay [5].
With `O=C(NCCCN1CCN(CCCNC(=O)c2cccc3ccccc23)CC1)c1cccc2ccccc12`, the TGI in [1], in assay [2], in [3], in [4] and in [5] was more than 100 µM in each case.
`CN(C)CCCNc1ccnc2c([N+](=O)[O-])cccc12`: the TGI in assay [2] was 30.9 µM; in assay [3], more than 100 µM; in [4], 66.7 µM.
Regarding `COc1ccc(C2=C(OC(C)=O)c3cccn3-c3ccc(Cl)cc3S2)cc1`, the TGI in [1] was 5.69 µM; in assay [2] it was more than 10 µM; in assay [6], 4.84 µM; in assay [4], 7.47 µM; in assay [5], more than 10 µM; in [9] it was more than 10 µM. This compound also gave a TGI in [8] of more than 10 µM.
Turning to `COc1ccc(/C=C\c2cc(OC)c(OC)c(OC)c2)cc1NC(=O)/C=C/c1ccc(OC)c(OC)c1`, the GI50 is more than 100 µM in assay [2]; 5.25 µM in assay [3]; 0.348 µM in [6]; 6.66 µM in assay [4]; 0.949 µM in assay [7]; 3.67 µM in assay [5]. The GI50 was 3.22 µM in [9] and 3.9 µM in [8]. The TGI is more than 100 µM in assay [2]; more than 100 µM in assay [3]; 1.71 µM in assay [6]; more than 100 µM in assay [4]; more than 100 µM in assay [7]; more than 100 µM in [5]. In addition, the TGI in assay [9] and in [8] was more than 100 µM throughout.
Regarding `CC(C)(C)OC(=O)N(CCCCN(CCCn1c2c(c3ccccc3c1=O)C(=O)c1ccccc1-2)C(=O)OC(C)(C)C)CCCn1c2c(c3ccccc3c1=O)C(=O)c1ccccc1-2`, the GI50 was 90.5 µM in assay [1]; 14.3 µM in [3]; 68.7 µM in assay [6]; 13.1 µM in [10]; more than 100 µM in assay [4]; 30.1 µM in [7]. In addition, the GI50 in assay [5] is 92.8 µM; in [8], 27.7 µM. For the same compound, the TGI in [1] is more than 100 µM; in assay [3] it was more than 100 µM; in assay [6], more than 100 µM; in [10] it was 59.6 µM; in assay [4], more than 100 µM; in assay [7], more than 100 µM. Besides, the TGI in assay [5] and in assay [8] was more than 100 µM throughout.
For `CC1=CC(=O)NP(=O)(Oc2ccc(Cl)cc2)N1` (stereo not drawn), the TGI in assay [1], in assay [2], in [3], in assay [4] and in [5] was more than 100 µM each time.
With `Cc1cccc(NC(=O)c2c(N)[n+]([O-])c3ccccc3[n+]2[O-])c1`, the TGI in assay [1] is more than 100 µM; in assay [2] it was 24.4 µM; in [3] it was 29.9 µM; in assay [4] it was 81 µM.
Turning to `COC(=O)NC1(NC(=O)OC)NC(=O)c2ccccc2N1`, the TGI in assay [1], in [2], in [3], in assay [10], in assay [4] and in assay [7] was more than 100 µM throughout. Further, the TGI in [5], in assay [9] and in [8] was more than 100 µM each time.
With `COc1ccc2nc3cc(Cl)ccc3c(Sc3ccc(N)cc3)c2c1`, the TGI is 13.8 µM in [1]; 26.1 µM in assay [2]; 21.9 µM in assay [3]; 9.65 µM in [4]; 17.8 µM in assay [5].
On to `C=CC[P@]1(=O)O[C@H](c2ccccc2)C(C)N1C(C)C` (stereo partly drawn), for which the TGI in assay [1], in assay [2], in assay [3], in [4] and in [5] was more than 100 µM each time.
With `O=C1OC(c2ccc([N+](=O)[O-])cc2)=N/C1=C\c1ccc(Cl)cc1`, the TGI in assay [1], in assay [2], in assay [3], in assay [6], in assay [10] and in assay [4] was more than 100 µM in each case. Also, the TGI in assay [5], in assay [9] and in assay [8] was more than 100 µM each time.
Consider `C=CCCC(O)c1cc(C)c(O)c(C)c1` (stereo not drawn), for which the TGI in assay [1], in assay [2], in assay [3], in [4] and in assay [5] was more than 100 µM throughout.
Consider `COc1ccccc1/C=C1\C(=O)N(C(=O)Cc2ccccc2)N=C1C`, for which the TGI in assay [1], in assay [2], in [3] and in assay [4] was more than 100 µM throughout.

Values taken from PubChem BioAssay (NCI).
